Measurements from a compilation of properties of binary mixtures (doi:10.1016/j.tca.2013.02.002).

Assay: xn = mol fraction of the nth substance listed
Settings: 101 kPa

CS(C)=O + CC[NH+](CC)CC.O=S(=O)([O-])O
x1 = 1
Settings | speed of sound [m/s] | viscosity [mPa·s]
298.15 K | 1496 | 1.99
303.15 K | 1472 | 1.8
308.15 K | 1460 | 1.65

CC[NH+](CC)CC.O=S(=O)([O-])O + CS(C)=O
Settings | speed of sound, 298.15 K [m/s] | speed of sound, 303.15 K [m/s] | speed of sound, 308.15 K [m/s] | viscosity, 298.15 K [mPa·s] | viscosity, 303.15 K [mPa·s] | viscosity, 308.15 K [mPa·s]
x1 = 0.011 | – | – | 1468 | – | – | 2.8
x2 = 0 | 1874 | 1871 | 1866 | 235 | 153 | 138
x2 = 0.0244 | – | 1867 | 1863 | – | 148 | 134
x2 = 0.0557 | 1861 | 1859 | 1857 | 219 | 142 | 129
x2 = 0.108 | 1852 | 1850 | 1850 | 204 | 132 | 120
x2 = 0.1556 | 1838 | 1836 | 1830 | 190 | 123 | 112
x2 = 0.199 | – | 1820 | 1822 | – | 115 | 105
x2 = 0.2473 | 1812 | 1808 | – | 165 | 106 | –
x2 = 0.3279 | 1786 | 1778 | 1778 | 144 | 92 | 85.4
x2 = 0.4004 | 1758 | 1748 | – | 125 | 79.3 | –
x2 = 0.4964 | 1720 | 1708 | 1706 | 101 | 63.8 | 60.6
x2 = 0.5798 | 1684 | 1670 | 1666 | 81.1 | 51.1 | 49.2
x2 = 0.653 | 1652 | – | 1632 | 64.6 | – | 39.59
x2 = 0.7376 | 1614 | 1596 | 1590 | 46.7 | 29.42 | 29.13
x2 = 0.7812 | 1594 | 1576 | 1568 | 38.2 | 24.22 | 23.96
x2 = 0.8269 | 1574 | 1554 | 1546 | 29.63 | 19.13 | 18.72
x2 = 0.8772 | 1550 | 1530 | 1520 | 20.8 | 13.67 | 13.35
x2 = 0.9156 | 1534 | 1514 | 1502 | 14.31 | 9.78 | 9.41
x2 = 0.9539 | – | 1495 | 1484 | – | 6.27 | 5.84
